This note sets out measurements from PubChem BioAssay (NCI).

Common to all, as to assay: NCI anticancer screen, dose series, 48 h
The subject of assay [1] is RPMI-8226 leukemia.
For assay [2], the system named is 786-0 renal.
In assay [3] the test system is SR leukemia.
The test system of assay [4] is A498 renal.
The test system of assay [5] is SNB-75 CNS.
In assay [6] the test system is A549 NSCLC.
Assay [7] deals with ACHN renal.
The subject of assay [8] is PC-3 prostate.
The subject of assay [9] is TK-10 renal.
For assay [10], the system named is M14 melanoma.

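Step 1: Grow cells in 96-well plates. Step 2: Expose to compound for 48 hours at 5 concentrations. Step 3: Interpolate endpoints linearly; if unreached, use highest concentration. GI50 is the concentration that inhibits growth by half. The concentration for full growth arrest is given as TGI.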 Bounds are passed on as bounds.

As for `O=C(O)C(Cc1ccccc1)N1C(=O)/C(=C/C(Cl)=C/c2ccc([N+](=O)[O-])cc2)SC1=S` (stereo unspecified), the GI50 was 3.22 µM in [1]; 2.2 µM in assay [2]; 2.45 µM in assay [3]; 1.65 µM in assay [4]; 1.96 µM in [5]; 3.46 µM in assay [6]. Moreover, the GI50 in assay [7] was 1.8 µM; in assay [8], 2.53 µM. Moreover, the TGI in assay [1] was > 100 µM; in assay [2], 5.02 µM; in assay [3], > 100 µM; in assay [4] it was 3.24 µM; in [5], 5.37 µM; in assay [6] it was > 100 µM. In addition, the TGI in [7] is 3.3 µM; in assay [8] it was 7.98 µM.

Turning to `OC(Cc1cccc2ccccc12)CN1CCC(c2ccccc2)CC1` (stereo unspecified), the TGI was 31.8 µM in assay [1]; 28.3 µM in [2]; 27.4 µM in assay [3]; 28.1 µM in [9]; 28.7 µM in [10]; 25.3 µM in assay [5]. Besides, the TGI in [6] turned out to be 29.9 µM; in assay [7] it was 31.7 µM; in assay [8], 30.5 µM.

Consider `NC(=S)c1cccc(C2Nc3ccccc3O2)c1` (stereo unspecified), for which the TGI in [2], in assay [3], in [9], in assay [10], in assay [5] and in assay [6] was > 100 µM in each case. Also, the TGI in [7] and in [8] was > 100 µM each time.

In the case of `Cn1cc(-c2csc(-c3ccc(Cl)cc3)n2)c2cccnc21`, the GI50 in assay [1] is 12.3 µM; in assay [2] it was 16.3 µM; in assay [3], 13.3 µM; in assay [9], 12.4 µM; in assay [10], 12 µM; in assay [5], 20 µM. For the same compound, the GI50 is 17.6 µM in [6], 14.1 µM in [7] and 11.4 µM in assay [8]. Moreover, the TGI in assay [1] came out at 78.6 µM; in [2], 32.4 µM; in assay [3] it was 59.6 µM; in assay [9], 31.1 µM; in assay [10], 24.8 µM; in assay [5] it was 54.3 µM. Besides, the TGI in [6] came out at 46.4 µM; in [7], 29.2 µM; in assay [8], 34.2 µM.

With `COc1cc(C=NCC(=O)CSC(c2ccccc2)c2ccccc2)ccc1O`, the GI50 in [1] is 6.26 µM; in [2] it was 14.9 µM; in [3], 8.27 µM; in assay [9], 14.7 µM; in [10], 13.2 µM; in assay [5], 13 µM. Also, the values for the GI50 in assay [6], in assay [7] and in [8] were 10.7 µM, 12.5 µM and 9.26 µM, respectively. The TGI in assay [1] was 25.1 µM; in assay [2], 28.2 µM; in assay [3], 25.3 µM; in [9], 53.7 µM; in assay [10] it was 25.9 µM; in [5] it was 25.9 µM. Moreover, the TGI in [6] was 26 µM; in assay [7] it was 31.8 µM; in assay [8], 28.2 µM.

As for `COc1ccc(-c2cn3ccnc3c(-c3ccc(Cl)cc3)n2)cc1`, the GI50 was 4.58 µM in assay [1]; 11.7 µM in [2]; 1.71 µM in [3]; 2.31 µM in assay [4]; 5.95 µM in [10]; 6.85 µM in [5]. The GI50 is 7.49 µM in assay [6], 10.5 µM in assay [7] and 14.5 µM in assay [8]. Moreover, the TGI was 91.3 µM in [1]; > 100 µM in assay [2]; > 100 µM in assay [3]; 9.87 µM in assay [4]; > 100 µM in assay [10]; > 100 µM in assay [5]. For the same compound, the results for the TGI in assay [6], in [7] and in [8] were 99.3 µM, 47 µM and > 100 µM, respectively.

In the case of `COc1c(OC2OC(C)C(O)C(O)C2O)c(OC)c2oc(-c3ccc(O)cc3)cc(=O)c2c1O` (stereo unspecified), the GI50 in assay [1] was 28.2 µM; in assay [2] it was 50.7 µM; in [3], 19.7 µM; in assay [9], 72.2 µM; in assay [4], 35.4 µM; in assay [5] it was 20.6 µM. Further, the results for the GI50 in assay [6], in [7] and in assay [8] were 32.3 µM, 30.7 µM and 34.8 µM, respectively. Moreover, the TGI is > 100 µM in assay [1]; > 100 µM in assay [2]; 93.5 µM in assay [3]; > 100 µM in assay [9]; > 100 µM in assay [4]; 87.1 µM in assay [5]. For the same compound, the TGI in assay [6], in assay [7] and in [8] was > 100 µM each time.

On to `C[C@]12CCC3c4ccc(O)cc4CCC3C1CC[C@@H]2NC(=O)/C=C/c1ccc(O)c(O)c1` (stereo partly specified), for which the GI50 was 4.39 µM in assay [1]; 10.4 µM in [2]; 7.26 µM in [3]; 13.8 µM in assay [9]; 10.6 µM in assay [10]; 2.66 µM in [5]. For the same compound, the GI50 was 15.5 µM in [6], 12.4 µM in assay [7] and 3.94 µM in [8]. Besides, the TGI is 24.8 µM in assay [1]; 29.2 µM in [2]; 42 µM in assay [3]; 50.6 µM in assay [9]; 22.9 µM in [10]; 9.36 µM in [5]. For the same compound, the TGI came to 31.8 µM in assay [6], 25.1 µM in assay [7] and 40.5 µM in assay [8].

Consider `S=C(Nc1ccc(-c2nc3ccccc3s2)cc1)Nc1ccc(-c2nc3ccccc3s2)cc1`, for which the GI50 in assay [1] was 34.6 µM; in assay [2], 28 µM; in assay [3] it was 21 µM; in assay [9], 18.3 µM; in assay [10] it was 21.6 µM; in assay [5], 10.4 µM. Also, the GI50 is 22.4 µM in assay [6], 17.1 µM in assay [7] and 26.8 µM in assay [8]. Moreover, the TGI in [1] is > 100 µM; in assay [2], 83.2 µM; in [3], 49.5 µM; in [9], 63.2 µM; in assay [10], 46.1 µM; in [5], 36.4 µM. Moreover, the TGI is 78.5 µM in assay [6], 41 µM in [7] and > 100 µM in assay [8].
